Reference: patent publication US20250122541A1, “ENZYMATIC AND CHEMICAL CATALYSIS FOR PRODUCTION FROM GLUCOSE OF THE PHARMACEUTICAL PRECURSOR, S-3-HYDROXY- Y -BUTYROLACTONE HBL” (The United States, as represented by the Secretary of …, priority 2023, published 2025)
Where “and” joins values, the source holds several entries; their conditions need not be identical. Equal entries are not always repeated.

Experiments:
[1] = Half-life of BPP followed spectroscopically at 265 nm; assay type: physicochemical; conditions: phosphate buffer (enzyme-free ultrafiltrate of the reaction), pH 6, 0.1 M phosphate, first-order decay, after removal of D1*D2D3 by ultrafiltration, read-out: half-life (t1/2)
Description: The synthesis and t1/2 of BPP was determined spectroscopically at 265 nm. The synthesis of BPP with D1*D2D3 sonicate and 10 mM glucosone in a 500 μL reaction was followed until the absorbance reached ˜1.4 (about 14 minutes). The reaction was then passed through a 3,000 MWCO Nanosep centrifugal filter (PALL Life Sciences) by centrifuging for 4 minutes at 14,000×g and 200 μL of filtrate followed at A265 every 4 s. The decay of A265 was normalized to the highest and lowest measured values, with the highest A265 set to 1 and the lowest to 0. To determine whether the t1/2 was 0th, 1st or 2nd order, the natural log of the data was plotted against time. After determining that the decay followed 1st-order decay, t1/2 was calculated using the Solver add-in for Microsoft Excel, minimizing the sum of squared differences between the measured and modeled data calculated using Equation 1.

[2] = Partition coefficient of HBL extraction from aqueous solution into organic solvent (GC/FID); assay type: physicochemical
Excerpt: One potential application of HBL, which may have high value, is as a pharmaceutical precursor, which depends on its enantiomeric purity. To identify the chirality of the HBL produced by the above process, gas chromatography (GC) with flame ionization detection (FID) was applied using a MilliporeSigma® Supelco® ß-Dex 255 capillary GC column containing a chiral stationary phase of 2,3-diO-acetyl-6-0-TBDMS-ß-cyclodextrin. (MilliporeSigma and Supelco are registered trademarks of Merck KGaA of Darmstadt, Germany) This column successfully separated the enantiomers of HBL, although the retention times depended on the solvent in which the HBL was dissolved. Based on the reaction network from glucose to HBL, the chirality should be preserved at the C-5 position (FIG. 1). The reaction product solution was extracted with ethyl acetate, and the organic phase analyzed by GC/FID. […] The partition coefficient of HBL extraction into ethyl acetate was 0.1±0.02, and quantification of the HBL in the ethyl acetate coupled with this partition coefficient leads to an overall yield of HBL from glucose of 90%, which is limited by equilibrium, vide supra. HBL can also be extracted into THE, with a partition coefficient of 1.3±0.5, and propylene carbonate, with a partition coefficient of 0.5±0.1.

| half-life [1] | Compound | partition coefficient of HBL extraction into THF ([2]; THF (printed THE) / aqueous solution) | partition coefficient of HBL extraction into ethyl acetate ([2]; ethyl acetate / aqueous reaction product solution) | partition coefficient of HBL extraction into propylene carbonate ([2]; propylene carbonate / aqueous solution) |
| --- | --- | --- | --- | --- |
| 3.7 min | O=C1C(O)=C[C@@H](CO)OC1O (stereo partly shown) [BPP] | – | – | – |
| – | O=C1C[C@H](O)CO1 [HBL, (S)-3-hydroxy-γ-butyrolactone] | 1.3 and 1.3±0.5 | 0.1 and 0.1±0.02 | 0.5±0.1 |
